Experimental data as given in US20210300940A1 (Merck Patent GmbH, priority 2018, published 2021).

Experiments:
TLR7 = molecular target: T1, TLR7 (Homo sapiens, UniProt Q9NYK1); assay: HEK/293 TLR7 Cell Assay; assay type: cell-based; conditions: TLR7/NFKb HEK cells, R848 agonist 10 uM final concentration, Steady-Glo readout; read-out: TLR7 potency
T1 construct: expressed in transfected cells; host or cells: HEK/293 cells carrying TLR7 and an NF-kB luciferase reporter
T1 sequence (Q9NYK1 27-1049): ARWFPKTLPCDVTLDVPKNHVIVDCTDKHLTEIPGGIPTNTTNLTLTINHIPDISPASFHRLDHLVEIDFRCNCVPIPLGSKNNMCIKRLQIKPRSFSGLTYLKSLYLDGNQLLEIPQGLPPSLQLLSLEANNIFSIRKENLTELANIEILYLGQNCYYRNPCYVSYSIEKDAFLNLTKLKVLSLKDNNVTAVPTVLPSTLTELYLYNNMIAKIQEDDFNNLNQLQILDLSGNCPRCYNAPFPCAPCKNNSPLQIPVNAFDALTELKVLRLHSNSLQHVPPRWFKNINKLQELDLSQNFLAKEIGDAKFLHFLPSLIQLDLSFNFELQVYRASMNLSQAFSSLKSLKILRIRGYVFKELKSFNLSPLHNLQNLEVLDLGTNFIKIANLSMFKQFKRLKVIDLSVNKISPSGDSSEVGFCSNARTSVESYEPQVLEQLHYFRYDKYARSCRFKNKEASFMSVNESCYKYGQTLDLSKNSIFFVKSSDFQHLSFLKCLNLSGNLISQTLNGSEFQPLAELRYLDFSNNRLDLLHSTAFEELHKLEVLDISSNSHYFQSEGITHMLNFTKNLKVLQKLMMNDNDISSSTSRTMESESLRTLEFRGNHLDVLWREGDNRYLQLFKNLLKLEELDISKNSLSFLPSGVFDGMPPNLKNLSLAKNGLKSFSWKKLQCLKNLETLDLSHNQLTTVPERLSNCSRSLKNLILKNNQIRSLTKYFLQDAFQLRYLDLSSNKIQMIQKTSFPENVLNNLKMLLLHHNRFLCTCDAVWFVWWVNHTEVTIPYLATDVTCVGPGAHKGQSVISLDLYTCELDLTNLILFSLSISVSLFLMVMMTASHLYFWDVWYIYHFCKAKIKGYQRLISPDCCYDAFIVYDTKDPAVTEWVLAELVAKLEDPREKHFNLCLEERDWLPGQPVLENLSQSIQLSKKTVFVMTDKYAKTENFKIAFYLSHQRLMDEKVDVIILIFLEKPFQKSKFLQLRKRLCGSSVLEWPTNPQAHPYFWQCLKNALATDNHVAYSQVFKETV
In short: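 TLR7/NF-κB reporter HEK293 cells, 5000/well, cultured 24 h, then preincubated 30 min with compound before R848 agonist (10 uM final). After 5 h stimulation, Steady-Glo luciferase luminescence read.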

TLR8 = molecular target: T2, TLR8 (Homo sapiens, UniProt Q9NR97); assay: HEK/293 TLR8 Cell Assay; assay type: cell-based; conditions: HEK cells, R848 agonist 30 uM final concentration, Steady-Glo readout; read-out: TLR8 potency
T2 construct: expressed in transfected cells; host or cells: HEK/293 reporter cells (NF-kB luciferase)
T2 sequence (Q9NR97 27-1041): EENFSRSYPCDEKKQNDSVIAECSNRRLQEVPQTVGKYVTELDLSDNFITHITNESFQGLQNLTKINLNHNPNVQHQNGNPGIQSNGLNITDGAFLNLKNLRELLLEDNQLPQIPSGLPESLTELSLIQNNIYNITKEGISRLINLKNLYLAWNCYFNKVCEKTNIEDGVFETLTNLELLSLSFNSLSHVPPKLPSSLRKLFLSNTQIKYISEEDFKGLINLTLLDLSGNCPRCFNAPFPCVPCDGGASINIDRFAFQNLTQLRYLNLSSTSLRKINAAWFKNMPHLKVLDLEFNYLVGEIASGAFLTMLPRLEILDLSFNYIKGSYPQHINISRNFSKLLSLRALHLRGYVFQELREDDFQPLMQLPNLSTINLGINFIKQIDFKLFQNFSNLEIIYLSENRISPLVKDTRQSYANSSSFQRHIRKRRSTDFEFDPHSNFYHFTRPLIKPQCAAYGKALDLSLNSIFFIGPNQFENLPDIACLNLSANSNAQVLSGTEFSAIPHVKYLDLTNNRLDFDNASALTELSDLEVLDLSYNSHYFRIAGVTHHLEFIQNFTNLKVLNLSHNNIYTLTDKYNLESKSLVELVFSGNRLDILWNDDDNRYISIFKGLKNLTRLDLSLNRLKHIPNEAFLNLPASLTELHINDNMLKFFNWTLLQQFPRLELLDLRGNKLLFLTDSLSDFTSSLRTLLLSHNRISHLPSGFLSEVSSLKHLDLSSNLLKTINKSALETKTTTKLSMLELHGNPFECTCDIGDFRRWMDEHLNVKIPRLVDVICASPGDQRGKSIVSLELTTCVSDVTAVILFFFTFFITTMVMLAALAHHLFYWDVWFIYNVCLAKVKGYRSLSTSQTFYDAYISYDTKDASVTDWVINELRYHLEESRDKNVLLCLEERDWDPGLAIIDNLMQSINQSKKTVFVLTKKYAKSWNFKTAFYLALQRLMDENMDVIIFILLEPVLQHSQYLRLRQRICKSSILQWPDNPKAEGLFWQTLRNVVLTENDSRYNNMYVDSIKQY

Structure (SMILES)	IC50 (TLR7) [nM]	IC50 (TLR8) [nM]
C[C@@H]1CN(c2ccc(C#N)c3nccnc23)C[C@H](CSCC(O)CO)O1 (stereo partly drawn) [Example 227, 8-[(2R,6R)-2-(2,3-Dihydroxy-propylsulfanylmethyl)-6-methyl-morpholin-4-yl]-quinoxaline-5-carbonitrile]	75 to 150	< 75
C[C@@H]1CN(c2ccc(C#N)c3nccnc23)C[C@H](CN2CCC(F)(C(=O)O)CC2)O1 [Example 228, 1-[(2S,6R)-4-(8-Cyano-quinoxalin-5-yl)-6-methyl-morpholin-2-ylmethyl]-4-fluoro-piperidine-4-carboxylic acid]	< 75	< 75
C[C@H]1CN(c2ccc(C#N)c3nccnc23)C[C@H](CN2CCN(C)CC2)O1 [Example 231, 8-[(2S,6S)-2-Methyl-6-(4-methyl-piperazin-1-ylmethyl)-morpholin-4-yl]-quinoxaline-5-carbonitrile]	< 75	< 75
C[C@H]1CN(c2ccc(C#N)c3nccnc23)C[C@H](CN2CCC(N3CCCC3)CC2)O1 [Example 232, 8-[(2S,6S)-2-Methyl-6-(4-pyrrolidin-1-yl-piperidin-1-ylmethyl)-morpholin-4-yl]-quinoxaline-5-carbonitrile]	< 75	< 75
C[C@@H]1CN(c2ccc(C#N)c3nccnc23)C[C@H](C(=O)NC[C@@H](O)CO)O1 [Example 233, (2R,6R)-4-(8-Cyano-quinoxalin-5-yl)-6-methyl-morpholine-2-carboxylic acid ((R)-2,3-dihydroxy-propyl)-amide]	< 75	< 75
C[C@@H]1CN(c2ccc(C#N)c3nccnc23)C[C@H](C(=O)NC[C@H](O)CO)O1 [Example 234, (2R,6R)-4-(8-Cyano-quinoxalin-5-yl)-6-methyl-morpholine-2-carboxylic acid ((S)-2,3-dihydroxy-propyl)-amide]	75 to 150	75 to 150
C[C@@H]1CN(c2ccc(C#N)c3nccnc23)C[C@H](C(=O)N2CC(N3CC(C)(O)C3)C2)O1 [Example 235, 8-[(2R,6R)-2-(3-Hydroxy-3-methyl-[1,3′]biazetidinyl-1′-carbonyl)-6-methyl-morpholin-4-yl]-quinoxaline-5-carbonitrile]	75 to 150	75 to 150
C[C@@H]1CN(c2ccc(C#N)c3nccnc23)C[C@H](C(=O)NC2CCC(=O)NC2=O)O1 (stereo partly drawn) [Example 236, (2R,6R)-4-(8-Cyano-quinoxalin-5-yl)-6-methyl-morpholine-2-carboxylic acid (2,6-dioxo-piperidin-3-yl)-amide]	75 to 150	75 to 150
C[C@@H]1CN(c2ccc(C#N)c3nccnc23)C[C@H](C(=O)NCC(O)C(F)(F)F)O1 (stereo partly drawn) [Example 237, (2R,6R)-4-(8-Cyano-quinoxalin-5-yl)-6-methyl-morpholine-2-carboxylic acid (3,3,3-trifluoro-2-hydroxy-propyl)-amide]	< 75	< 75
C[C@@H]1CN(c2ccc(C#N)c3nccnc23)C[C@H](C(=O)NC[C@@H](C)O)O1 [Example 238, (2R,6R)-4-(8-Cyano-quinoxalin-5-yl)-6-methyl-morpholine-2-carboxylic acid ((R)-2-hydroxy-propyl)-amide]	< 75	< 75
C[C@@H]1CN(c2ccc(C#N)c3nccnc23)C[C@H](C(=O)NCCN2CCS(=O)(=O)CC2)O1 [Example 239, (2R,6R)-4-(8-Cyano-quinoxalin-5-yl)-6-methyl-morpholine-2-carboxylic acid [2-(1,1-dioxo-1lambda6-thiomorpholin-4-yl)-ethyl]-amide]	< 75	> 150
C[C@@H]1CN(c2ccc(C#N)c3nccnc23)C[C@H](C(=O)NCC2CN(C)CCO2)O1 (stereo partly drawn) [Example 240, (2R,6R)-4-(8-Cyano-quinoxalin-5-yl)-6-methyl-morpholine-2-carboxylic acid (4-methyl-morpholin-2-ylmethyl)-amide]	< 75	< 75
C[C@@H]1CN(c2ccc(C#N)c3nccnc23)C[C@H](C(=O)NC2CCN(CC3CC3)C2)O1 (stereo partly drawn) [Example 241, (2R,6R)-4-(8-Cyano-quinoxalin-5-yl)-6-methyl-morpholine-2-carboxylic acid (1-cyclopropylmethyl-pyrrolidin-3-yl)-amide]	< 75	< 75
CC(=O)N1CCC(NC(=O)[C@H]2CN(c3ccc(C#N)c4nccnc34)C[C@@H](C)O2)CC1 [Example 242, (2R,6R)-4-(8-Cyano-quinoxalin-5-yl)-6-methyl-morpholine-2-carboxylic acid (1-acetyl-piperidin-4-yl)-amide]	< 75	< 75
CC(=O)NCCNC(=O)[C@H]1CN(c2ccc(C#N)c3nccnc23)C[C@@H](C)O1 [Example 243, (2R,6R)-4-(8-Cyano-quinoxalin-5-yl)-6-methyl-morpholine-2-carboxylic acid (2-acetylamino-ethyl)-amide]	75 to 150	> 150
CCN(C)CCNC(=O)[C@H]1CN(c2ccc(C#N)c3nccnc23)C[C@@H](C)O1 [Example 244, (2R,6R)-4-(8-Cyano-quinoxalin-5-yl)-6-methyl-morpholine-2-carboxylic acid [2-(ethyl-methyl-amino)-ethyl]-amide]	< 75	< 75
C[C@@H]1CN(c2ccc(C#N)c3nccnc23)C[C@H](C(=O)NCC2CCCN2C)O1 (stereo partly drawn) [Example 245, (2R,6R)-4-(8-Cyano-quinoxalin-5-yl)-6-methyl-morpholine-2-carboxylic acid (1-methyl-pyrrolidin-2-ylmethyl)-amide]	< 75	< 75
C[C@@H]1CN(c2ccc(C#N)c3nccnc23)C[C@H](C(=O)NCC(C)(C)O)O1 [Example 246, (2R,6R)-4-(8-Cyano-quinoxalin-5-yl)-6-methyl-morpholine-2-carboxylic acid (2-hydroxy-2-methyl-propyl)-amide]	< 75	< 75
C[C@@H]1CN(c2ccc(C#N)c3nccnc23)C[C@H](C(=O)NC2CCN(CC(F)(F)F)CC2)O1 [Example 247, (2R,6R)-4-(8-Cyano-quinoxalin-5-yl)-6-methyl-morpholine-2-carboxylic acid [1-(2,2,2-trifluoro-ethyl)-piperidin-4-yl]-amide]	< 75	< 75
CC[C@@H](NC(=O)[C@H]1CN(c2ccc(C#N)c3nccnc23)C[C@@H](C)O1)C(N)=O [Example 248, (2R,6R)-4-(8-Cyano-quinoxalin-5-yl)-6-methyl-morpholine-2-carboxylic acid ((R)-1-carbamoyl-propyl)-amide]	75 to 150	< 75
